Holding throughout (type): cell-based, ovine
Assay [1] concerns fibrin gel constructs. Description: Isolated tissue bath, constriction of construct rings.
Assay [2] relates to fibrin gel constructs. Description: Isolated tissue bath, relaxation of norepinephrine constriction. Conditions: for relaxation of norepinephrine constriction: SNAP 10^−5 M, norepinephrine 3×10^−6.
Assay [3] concerns fibrin gel constructs. Briefly: Total weight of fibrin gel vessel constructs. As to conditions: 10 and 20 μg/ml aprotinin, two week time point. As to the method:
Vessel constructs were left on 4.0 mm silastic tubing in which they were molded, and placed in a 50 ml conical with 30 ml of culture medium. The caps (fixed with 0.22 μm filter) were either attached to the pulsation device or left unattached. The constructs were incubated in a CO2 incubator at 37° C. and 5% CO2. Forty-eight hours after vessel molding, aprotinin (0-200 μg/ml) was added. Some of the vessel constructs were connected to a pneumatic pulsation system, representing a 5-10% radial distention at 60 beats/minute, and one of two pulsation time interval schemes (continuous or 1 hour per 12 hours). Aprotinin (Sigma), a competitive serine protease inhibitor which forms stable complexes with and blocks the active site of enzymes, was added to the fibrin mixture at 0, 10, 20, or 200 μg/ml of vessel medium. Aprotinin was reconstituted using culture medium, filter sterilized through a 0.22 μm syringe filter, and stored at 2.0 mg/ml/vial at 2-8° C. Tissue sections were weighed and some were placed in 10% buffered formalin for paraffin embedding, while others were placed in isolated tissue baths. The weights of the sections were added to obtain total construct weight. […]

The test system of assay [4] is fibrin gel constructs. Description: Hydroxyproline assay for collagen content of constructs. How it is done:
Native tissue and vessel constructs were assayed for hydroxyproline using a modification of the methods of Reddy and Enwemeka (Clinical Biochemistry 29(3):225-9 (1996), which is hereby incorporated by reference in its entirety) to determine total collagen content. Tissues were first dabbed dry, weighed, transferred to eppendorf tubes, and then lyophilized. Samples were mixed with 2N sodium hydroxide in a total volume of 50 μl and hydrolyzed by autoclaving at 120° C. for 20 min. To the hydrolyzate was added 450 μl of chloramines-T solution containing 1.27 gm chloramines-T (Sigma) dissolved in 20 ml 50% n-propanol (Fisher) and brought to 100 ml with acetate citrate buffer containing 120 gm sodium acetate trihydrate (Fisher), 46 gm citric acid (Fisher), 12 ml acetic acid (Fisher), 34 gm sodium hydroxide bringing to 1 liter with distilled water and pH to 6.5. Mixing gently, the oxidation was allowed to proceed for 25 minutes at room temp. Samples were then gently mixed with 500 μl of Ehrlich's Reagent containing 15 gm p-dimethylaminobenzaldehyde (p-DMBA) (Sigma) dissolved in n-propanol/perchloric acid (2:1 v/v) (Fisher) and brought to 100 ml. The resulting 96-well plate of 200 μl samples was read using a spectrophotometer set to 550 nm to determine optical density, which was then correlated with collagen amount using a standard curve and a conversion factor of 8.0 μg collagen to 1 μg 4-hydroxyproline (Edwards and O'Brien, Clinica Chimica Acta 104(2):161-7 (1980), which is hereby incorporated by reference in its entirety).
Hydroxyproline is an imino acid found specifically in type I collagen at 12.5% of the total by weight. This spectrophotometric assay was used to quantitate directly the collagen content of tissue homogenates. The values are represented as μg of collagen/mg of tissue, dry weight.

Assay [5] relates to fibrin gel constructs. Briefly: Cell density within vessel constructs (H&E histology). As to the method:
Histological sections of the vessel constructs that were previously prepared with H&E Stain were used to count total number of cells per area. Random high powered fields were measured using Photo Spot software to calculate the actual surface area. The hematoxylin nuclear stain was used to identify the number of cells per high powered field. This was then used to calculate the number cells per surface area (cells/mm^2). Cell density within vessel constructs of the present invention was calculated using histology sections stained with hematoxylin and eosin. Total number of cells were counted per high powered field, divided by the area measured using Photospot Advanced software, and reported as number of cells/mm^2. […] However, at 10 μg/ml aprotinin and thereafter, both groups were decreased and equal. The altered pulsation group ( 1/12 pulsation) (2 wks, 608±123 cells/mm^2, n=5) was equal to both non-pulsed and pulsed at 20 μg/ml aprotinin (FIG. 17). Considering the change in cell density over time (1, 2, 3, 4 and 8 weeks), they were similar at weeks 1 and 2. […] At weeks 4 and 8, there was a significant difference between the two groups (Non-pulsed: 1 wk, 613±140, n=2; 2 wk, 591±52, n=6; 3 wk, 817±43, n=2; 4 wk, 865±17, n=4; 8 wk, 751±101, n=6; Pulsed: 1 wk, 566±33, n=2; 2 wk, 448±71, n=5; 3 wk, 480±213, n=3; 4 wk, 175±25, n=4; 8 wk, 168±54, n=3) (FIG. 18).

Assay [6] relates to fibrin gel constructs. Briefly: PCNA staining, percentage of proliferating cells. As to the method:
Proliferating cell nuclear antigen stain (“PCNA”) was used to identify and quantitate the percentage of proliferating cells within the tissue-engineered vessel constructs of the present invention. PCNA is a 36 kD molecule highly conserved between species. PCNA functions as a co-factor for DNA polymerase delta in S phase and also during DNA synthesis associated with repair. The PCNA molecule has a half life greater than 20 hours and, therefore, may detect non-proliferating cells in Go phase. Tissue section were fixed in 10% buffered formalin, and paraffin embedded. Tissue sections were cut at 4 μm and placed on positive slides. Sections were then deparaffinised and rehydrated to distilled water. Endogenous peroxidase was blocked by placing sections in […] for 10 minutes and then washed in tap water. Antigen retrieval methods were then applied. Sections were either boiled in 0.01M citrate buffer, or placed in a microwave for 30 seconds on low power. Sections were then washed 1×5 minutes in […] (TBS). Sections were placed in diluted normal serum for 10 minutes, incubated with primary antibody, and washed in TBS 2×5 minutes. Sections were also incubated with biotinylated secondary antibody, and washed in TBS 2×5 minutes. Slides were then incubated in ABC reagent (streptavidin/peroxidase complex), and washed in TBS 2×5 minutes. Slides were incubated in DAB (peroxidase substrate), and washed thoroughly in running tap water. The slides were then counterstained with hematoxylin, dehydrated, and mounted. Proliferating cell nuclear antigen (PCNA) was used to identify cells that were in a proliferating state using histological staining methods. FIGS. 11A-D represent constructs that were stained at 1 week (FIGS. 11A and 11B) and 2 weeks (FIGS. 11C and 11D). The constructs in FIGS. 11A and 11C were under non-pulsed conditions. The constructs in FIGS. 11B and 11D were under pulsed conditions. The PCNA antibody was visualized with diaminobenzidine (DAB) and counter stained with hematoxylin. There was little staining visualized at the one week time point as compared to the two week time point for both the non-pulsed and pulsed constructs. The non-pulsed tissue was slightly greater at both one and two weeks. The PCNA staining was quantitated by counting the total number of positive cells per high powered field and dividing by the total number of cells in the same field to obtain percent of proliferation.

Where [7] appears, read: altered pulsation (1 hour per 12 hours), 20 μg/ml aprotinin, 2 wks.
The mark [8] stands for this setting: non-pulsed, 10 μg/ml aprotinin, 14 days.
[9] abbreviates: non-pulsed, 20 μg/ml aprotinin, 4 wk.
The mark [10] stands for this setting: non-pulsed, 20 μg/ml aprotinin, 8 wk.
Where [11] appears, read: non-pulsed, 20 μg/ml aprotinin, 14 days (2 wk).
Where [12] appears, read: non-pulsed, 200 μg/ml aprotinin, 14 days.
The mark [13] stands for this setting: pulsed, 10 μg/ml aprotinin, 14 days.
[14] abbreviates: pulsed, 20 μg/ml aprotinin, 4 wk.
Setting [15] is: pulsed, 20 μg/ml aprotinin, 8 wk.
The mark [16] stands for this setting: pulsed, 20 μg/ml aprotinin, 14 days (2 wk).
[17] abbreviates: pulsed, 200 μg/ml aprotinin, 14 days.
Where [18] appears, read: non-pulsed, 20 μg/ml aprotinin, 1 wk.
[19] abbreviates: non-pulsed, 20 μg/ml aprotinin, 3 wk.
Setting [20] is: pulsed, 20 μg/ml aprotinin, 1 wk.
Where [21] appears, read: pulsed, 20 μg/ml aprotinin, 3 wk.

Results on six compounds are retold here after patent US20040115176A1, “Fibrin-based tissue-engineered vasculature” (priority 2002, published 2004).

`[Cl-].[K+]` [KCl]: the constriction in assay [1] (118 mM KCl, non-pulsed constructs grown with 10 μg/ml aprotinin) is listed as 18446±4027 dynes/cm^2; in assay [1] (118 mM KCl, non-pulsed constructs grown with 20 μg/ml aprotinin), 12244±2083 dynes/cm^2; in assay [1] (118 mM KCl, non-pulsed constructs grown with 200 μg/ml aprotinin) it was 6056±2003 dynes/cm^2; in assay [1] (118 mM KCl, pulsed constructs grown with 10 μg/ml aprotinin) it was 19274±8302 dynes/cm^2; in assay [1] (118 mM KCl, pulsed constructs grown with 20 μg/ml aprotinin), 8896±1347 dynes/cm^2; in assay [1] (118 mM KCl, pulsed constructs grown with 200 μg/ml aprotinin), 2232±475 dynes/cm^2.

Turning to `NC[C@H](O)c1ccc(O)c(O)c1` [norepinephrine], the constriction was determined as 4743±1849 dynes/cm^2 in assay [1] (norepinephrine 3×10^−6 M, non-pulsed constructs, 0 μg/ml aprotinin); 965±16 dynes/cm^2 in assay [1] (norepinephrine 3×10^−6 M, non-pulsed constructs, 200 μg/ml aprotinin); 4316±1738 dynes/cm^2 in assay [1] (norepinephrine 3×10^−6 M, pulsed constructs, 10 μg/ml aprotinin); 101±102 dynes/cm^2 in assay [1] (norepinephrine 3×10^−6 M, pulsed constructs, 200 μg/ml aprotinin).

As to `CC(C)NCC(O)c1ccc(O)c(O)c1` (stereo not shown) [isoproterenol], the relaxation result in assay [2] (isoproterenol compared with SNAP) is listed as “much less than that of SNAP”.

Turning to `CC(=O)N[C@@H](C(=O)O)C(C)(C)SN=O` (racemic) [SNAP], the “relaxation of norepinephrine constriction” value in assay [2] (non-pulsed constructs) is given as 42 % of constriction; in assay [2] (pulsed constructs) it was “fully”. Moreover, the “relaxation of norepinephrine constriction compared with 0, 10 and 20 μg/ml aprotinin” value in assay [2] (SNAP 10^−7 and 10^−6 M, norepinephrine 10^−6 M, non-pulsed constructs, 200 μg/ml aprotinin) was “much greater”.

Take aprotinin: the entries for the “increase in total tissue weight with later (48 hrs) addition of aprotinin” value in assay [3] (non-pulsed) and in assay [3] (pulsed) were 50% and 130%, respectively. The collagen content was found to be 266.6 ± 20.9 µg/mg in assay [4] (setting [7]); 175.2 ± 42.3 µg/mg in assay [4] (setting [8]); 239.9 ± 73.2 µg/mg in assay [4] (setting [9]); 283.5 ± 80.3 µg/mg in assay [4] (setting [10]); 225.0 ± 30.2 µg/mg in assay [4] (setting [11]); 270.1 ± 46.2 µg/mg in assay [4] (setting [12]). Besides, the collagen content was found to be 31.5 ± 22.5 µg/mg in assay [4] (setting [13]); 124.5 ± 25.1 µg/mg in assay [4] (setting [14]); 91.8 ± 24.3 µg/mg in assay [4] (setting [15]); 105.9 ± 16.7 µg/mg in assay [4] (setting [16]); 217.3 ± 21.0 µg/mg in assay [4] (setting [17]). In addition, the cell density was 608±123 cells/mm^2 in assay [5] (setting [7]); 731±108 cells/mm^2 in assay [5] (setting [8]); 613±140 cells/mm^2 in assay [5] (setting [18]); 817±43 cells/mm^2 in assay [5] (setting [19]); 865±17 cells/mm^2 in assay [5] (setting [9]); 751±101 cells/mm^2 in assay [5] (setting [10]). Besides, the cell density in assay [5] (setting [11]) is given as 591±52 cells/mm^2; in assay [5] (setting [12]), 635±98 cells/mm^2; in assay [5] (setting [13]), 611±180 cells/mm^2; in assay [5] (setting [20]) it was 566±33 cells/mm^2; in assay [5] (setting [21]), 480±213 cells/mm^2; in assay [5] (setting [14]), 175±25 cells/mm^2. Further, the cell density in assay [5] (setting [15]) is recorded as 168±54 cells/mm^2; in assay [5] (setting [16]), 448±71 cells/mm^2; in assay [5] (setting [17]) it was 390±59 cells/mm^2. Also, the “percent of proliferation (PCNA positive cells)” value (“percent of proliferation” for short) in assay [6] (setting [7]) is listed as 26.3±5.0%; in assay [6] (setting [8]), 73.3±8.8%; in assay [6] (setting [18]), 20.44±44.0%; in assay [6] (setting [19]), 55.5±4.7%; in assay [6] (setting [9]), 20.1±7.6%; in assay [6] (setting [10]) it was 22.8±3. %. The “percent of proliferation” value was 73.6±6.3% in assay [6] (setting [11]); 2.9±0.9% in assay [6] (setting [12]); 12.3±3.6% in assay [6] (setting [13]); 41.7±31.1% in assay [6] (setting [20]); 37.5±3.6% in assay [6] (setting [21]); 28.0±6.9% in assay [6] (setting [14]). For the same compound, the “percent of proliferation” value in assay [6] (setting [15]) came out at 14.7±7.5%; in assay [6] (setting [16]) it was 89.6±2.6%; in assay [6] (setting [17]) it was 7.7±1.9%.

Take `CCCCC[C@H](O)/C=C/[C@@H]1[C@@H](C/C=C\CCCC(=O)O)[C@H]2CO[C@@H]1C2` [U46619]: the constriction in assay [1] (U46619 3×10^−7, non-pulsed constructs, 0 μg/ml aprotinin) is on record as 1160±775 dynes/cm^2; in assay [1] (U46619 3×10^−7, non-pulsed constructs, 200 μg/ml aprotinin), 2140±416 dynes/cm^2; in assay [1] (U46619 3×10^−7, pulsed constructs, 10 μg/ml aprotinin), 2670±944 dynes/cm^2; in assay [1] (U46619 3×10^−7, pulsed constructs, 200 μg/ml aprotinin), 973±240 dynes/cm^2.
